Assay results taken from patent US5036059A, “1,4-Dihydropyridine-3-carboxylate derivatives” (Nippon Shinyaku Company, Limited, priority 1984, dated 1991).
Structures can show the parent of a compound that is named as a salt.

Key:
[1] = test system: spontaneously hypertensive rats; test: Hypotensive action in spontaneously hypertensive rats, systolic arterial blood pressure by tail plethysmography, oral; assay type: in vivo
Method: (§1) Hypotensive action of diltiazem (which is a known hypotensive drug) measured by the same method at the doses of 3, 10 and 30 mg/kg were 0, 11.2 and 33.0%, respectively. Hypotensive action of the compound of Example 4 which is one of the most representative compounds of this invention was tested using spontaneously hypertensive rats and was compared with those of Nifedipine and Diltiazem hydrochloride. The method applied was that the drugs were orally given to the rats of which systolic arterial blood pressure were higher than 180 mmHg when it was measured plethysmographically using tail arteries. (Table 3)
Doses in mg/kg (p.o.) are as follows: *0.3 (1.0); **1.0 (3.0); ***30.

[2] = test system: rats (with normal blood pressure); test: Hypotensive action, mean blood pressure of femoral artery in unanesthetized normotensive rats, oral; assay type: in vivo; conditions: Rattus norvegicus, read-out: % Decreases in Mean Blood Pressure [at peak effect]; for inhibition in vivo at 1 mg/kg: 1 mg/kg oral; for inhibition in vivo at 3 mg/kg: 3 mg/kg oral; for inhibition in vivo at 10 mg/kg: 10 mg/kg oral
Method: Blood pressure of femoral artery of rats (with normal blood pressure) under unanesthetized condition was measured directly using a pressure tranducer.
The present invention compounds were given orally at doses of 1, 3 and 10 mg/kg, and changes in blood pressure were continuously recorded. Percent decreases of mean blood pressure at the peak effect were calculated. The maximum changes in mean blood pressure (%) were shown as "hypotensive action" (Table 2).
as §1

guinea pig heart = test: Coronary vasodilating action, constant pressure perfusion of isolated guinea pig heart (Langendorff); conditions: Cavia porcellus, via coronary artery; for activation at 0.001 mg: 10^-6 gram/heart; for activation at 0.001 mg / activation at 0.0001 mg: read-out: Perfusion Increasing Rate; for activation at 0.0001 mg: 10^-7 gram/heart
Method: Constant pressure perfusion samples of guinea pig heart isolated by a method according to Langendorff were treated with the present invention compounds by administration via coronary artery and the effect was examined (Table 1).
With reference to coronary vasodilating action of diltiazem measured by the same method, the increasing rates in perfusion by administration of 10^-7, 10^-6 and 10^-5 gram/heart were 4, 16 and 55%, respectively.

[3] = 0.5 hr after administration, 1.0 mg/kg p.o.
[4] = 1 hr after administration, 1.0 mg/kg p.o.
[5] = 2 hr after administration, 1.0 mg/kg p.o.
[6] = 3 hr after administration, 1.0 mg/kg p.o.
[7] = 5 hr after administration, 1.0 mg/kg p.o.
[8] = 8 hr after administration, 1.0 mg/kg p.o.
[9] = 12 hr after administration, 1.0 mg/kg p.o.
[10] = before administration, 1.0 mg/kg p.o.

Row | Structure (SMILES) | systolic arterial blood pressure [1, 3] | systolic arterial blood pressure [1, 4] | systolic arterial blood pressure [1, 5] | systolic arterial blood pressure [1, 6] | systolic arterial blood pressure [1, 7] | systolic arterial blood pressure [1, 8] | systolic arterial blood pressure [1, 9] | systolic arterial blood pressure [1, 10] | inhibition in vivo at 1 mg/kg [2] | inhibition in vivo at 3 mg/kg [2] | inhibition in vivo at 10 mg/kg [2] | activation at 0.001 mg (guinea pig heart) | activation at 0.0001 mg (guinea pig heart) | other results
1 | COc1ccc([C@@H]2Sc3ccccc3N(CCN(C)C)C(=O)[C@@H]2OC(C)=O)cc1 [Diltiazem.HCl] |  |  |  |  |  |  |  |  |  |  |  |  |  | systolic arterial blood pressure ([1]; 0.5 hr after administration, 30 mg/kg p.o.): 153.6 ± 5.4; systolic arterial blood pressure ([1]; 1 hr after administration, 30 mg/kg p.o.): 141.8 ± 10.8; systolic arterial blood pressure ([1]; 2 hr after administration, 30 mg/kg p.o.): 156.2 ± 8.8; systolic arterial blood pressure ([1]; 3 hr after administration, 30 mg/kg p.o.): 170.5 ± 4.8; systolic arterial blood pressure ([1]; 5 hr after administration, 30 mg/kg p.o.): 183.2 ± 2.8; systolic arterial blood pressure ([1]; 8 hr after administration, 30 mg/kg p.o.): 189.3 ± 4.6; systolic arterial blood pressure ([1]; 12 hr after administration, 30 mg/kg p.o.): 188.5 ± 2.0; systolic arterial blood pressure ([1]; before administration, 30 mg/kg p.o.): 191.2 ± 5.4
2 | COC(=O)C1=C(C)NC(C)=C(P2(=O)OCCCO2)C1c1ccccc1[N+](=O)[O-] (centres unmarked) [Example 4, Methyl 2,6-dimethyl-4-(2-nitrophenyl)-5-(2-oxo-1,3,2-dioxaphosphorinan-2-yl)-1,4-dihydropyridine-3-carboxylate] | 87.7 ± 4.9 | 90.2 ± 6.3 | 103.2 ± 7.3 | 133.3 ± 5.3 | 150.7 ± 7.7 | 152.8 ± 6.5 | 165.3 ± 6.1 | 193.0 ± 6.5 | 42.6% | 39% | 41.9% |  |  | systolic arterial blood pressure ([1]; 0.5 hr after administration, 0.3 mg/kg p.o.): 126.0 ± 3.9; systolic arterial blood pressure ([1]; 1 hr after administration, 0.3 mg/kg p.o.): 124.0 ± 3.3; systolic arterial blood pressure ([1]; 2 hr after administration, 0.3 mg/kg p.o.): 134.2 ± 4.3; systolic arterial blood pressure ([1]; 3 hr after administration, 0.3 mg/kg p.o.): 152.5 ± 4.0; systolic arterial blood pressure ([1]; 5 hr after administration, 0.3 mg/kg p.o.): 156.8 ± 8.3; systolic arterial blood pressure ([1]; 8 hr after administration, 0.3 mg/kg p.o.): 158.3 ± 7.2; systolic arterial blood pressure ([1]; 12 hr after administration, 0.3 mg/kg p.o.): 170.7 ± 5.4; systolic arterial blood pressure ([1]; 24 hr after administration, 0.3 mg/kg p.o.): 195.3 ± 5.9; systolic arterial blood pressure ([1]; 24 hr after administration, 1.0 mg/kg p.o.): 187.7 ± 7.5; systolic arterial blood pressure ([1]; before administration, 0.3 mg/kg p.o.): 185.2 ± 5.4
3 | CC1=C(C(=O)OCCN(C)Cc2ccccc2)C(c2ccccc2C(F)(F)F)C(P2(=O)OCC(C)(C)CO2)=C(C)N1 (centres unmarked) [Example 62, 2-(N-Benzyl-N-methylamino)-ethyl 2,6-dimethyl-5-(5,5-dimethyl-2-oxo-1,3,2-dioxaphosphorinan-2-yl)-4-(2-trifluoromethylphenyl)-1,4-dihydropyridine-3-carboxylate] |  |  |  |  |  |  |  |  | 10.6% | 37.4% | 48.3% | 70% | 19% | 
4 | COC(=O)C1=C(C)NC(C)=C(C(=O)OC)C1c1ccccc1[N+](=O)[O-] [Nifedipine, dimethyl 2,6-dimethyl-4-(2-nitrophenyl)-1,4-dihydropyridine-3,5-dicarboxylate] | 139.3 ± 6.9 | 161.3 ± 4.1 | 183.5 ± 10.0 | 188.3 ± 5.8 | 187.2 ± 5.3 | 190.9 ± 4.8 | 190.3 ± 5.5 | 194.8 ± 2.1 |  |  |  |  |  | systolic arterial blood pressure ([1]; 0.5 hr after administration, 3.0 mg/kg p.o.): 112.8 ± 6.0; systolic arterial blood pressure ([1]; 1 hr after administration, 3.0 mg/kg p.o.): 125.8 ± 4.4; systolic arterial blood pressure ([1]; 2 hr after administration, 3.0 mg/kg p.o.): 148.7 ± 9.9; systolic arterial blood pressure ([1]; 3 hr after administration, 3.0 mg/kg p.o.): 176.8 ± 2.6; systolic arterial blood pressure ([1]; 5 hr after administration, 3.0 mg/kg p.o.): 183.8 ± 6.0; systolic arterial blood pressure ([1]; 8 hr after administration, 3.0 mg/kg p.o.): 188.5 ± 2.9; systolic arterial blood pressure ([1]; 12 hr after administration, 3.0 mg/kg p.o.): 190.0 ± 7.0; systolic arterial blood pressure ([1]; before administration, 3.0 mg/kg p.o.): 189.0 ± 5.1
5 | COc1ccc([C@@H]2Sc3ccccc3N(CCN(C)C)C(=O)[C@@H]2OC(C)=O)cc1 [diltiazem, reference compound] |  |  |  |  |  |  |  |  |  | 0% | 11.2% | 16% | 4% | activation at 1e-05 g/heart, 1e-05 g/heart (guinea pig heart; 10^-5 gram/heart, read-out: increasing rate in perfusion): 55%; inhibition in vivo at 30 mg/kg ([2]; 30 mg/kg oral): 33%
